Laboratory results: US12643895B2, “Heteroaryl-substituted pyrazolo-pyridine protein kinase inhibitors for promoting liver regeneration or reducing or preventing hepatocyte death” (HepaRegeniX GmbH, priority 2019, dated 2026)

Assays:
Assay type in all cases: biochemical
BRaf = target: T1, BRaf (Homo sapiens, UniProt P15056); experiment: 33PanQinase radiometric kinase assay, BRaf (off-target); conditions: ratio IC50(off-target)/IC50(MKK4)
T1 construct: purchased ProQinase GmbH, Freiburg, Germany (assay service)
Experimental: (§1) The kinase activities of the compounds of the invention were measured using the 33PanQinase® Assay Service provided by ProQinase GmbH, Freiburg, Germany. Details of the assay conditions are disclosed on the website of ProQinase (https://www.proqinase.com/products-services-biochemical-assay-services/kinase-assays). In brief, all kinase assays were performed in 96-well FlashPlates™ from PerkinElmer (Boston, MA, USA) in a 50 μl reaction volume. The reaction cocktail was pipetted in four steps in the following order: • 20 μl of assay buffer (standard buffer) • 5 μl of ATP solution (in H2O) • 5 μl of test compound (in 10% DMSO) • 20 μl enzyme/substrate mix
(§2) The reaction cocktails were incubated at 30° C. for 60 minutes. The reaction is stopped with 50 μl of 2% (v/v) H3PO4, plates were aspirated and washed two times with 200 μl 0.9% (w/v) NaCl. Incorporation of ^33Pi was determined with a microplate scintillation counter (Microbeta, Wallac).
(§3) All assays were performed with a BeckmanCoulter/SAGIAN™ Core System.
(§4) In case of single concentration assays, the potency of the test compound is expressed as % residual activity. […] The fitting method used was a least-squares fit.
(§5) Selectivity of test compounds against BRaf, JNK1 and MKK7, altogether denominated as off-targets was calculated by the ratio of IC50 (off-target)/IC50 (MKK4) and categorized as follows: […]

JNK1 = target: T2, JNK1 (Homo sapiens, UniProt P45983); experiment: 33PanQinase radiometric kinase assay, JNK1 (off-target); conditions: ratio IC50(off-target)/IC50(MKK4)
T2 construct: purchased ProQinase GmbH, Freiburg, Germany (assay service)
Experimental: as §1, §2, §3, §4, §5

MKK4 = target: T3, MKK4 (Homo sapiens, UniProt P45985); experiment: 33PanQinase radiometric kinase assay, MKK4; conditions: category based on IC50-values; ATP at apparent Km; read-out: Potency MKK4
T3 construct: purchased ProQinase GmbH, Freiburg, Germany (assay service)
T3 sequence (P45985 1-399): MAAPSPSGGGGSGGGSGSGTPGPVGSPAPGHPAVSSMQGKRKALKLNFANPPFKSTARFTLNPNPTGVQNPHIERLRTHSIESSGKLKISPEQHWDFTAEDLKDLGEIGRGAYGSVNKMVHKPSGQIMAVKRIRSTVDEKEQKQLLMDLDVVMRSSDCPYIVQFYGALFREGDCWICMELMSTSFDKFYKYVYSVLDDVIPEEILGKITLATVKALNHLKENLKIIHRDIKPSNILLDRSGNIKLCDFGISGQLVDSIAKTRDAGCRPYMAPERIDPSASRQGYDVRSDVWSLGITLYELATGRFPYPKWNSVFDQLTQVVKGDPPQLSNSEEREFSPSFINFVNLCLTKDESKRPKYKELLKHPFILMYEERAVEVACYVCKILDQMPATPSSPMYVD
Experimental: as §1, §2, §3, §4

MKK7 = target: T4, MKK7 (Homo sapiens, UniProt O14733); experiment: 33PanQinase radiometric kinase assay, MKK7 (off-target); conditions: ratio IC50(off-target)/IC50(MKK4)
T4 construct: purchased ProQinase GmbH, Freiburg, Germany (assay service)
T4 sequence (O14733 1-419): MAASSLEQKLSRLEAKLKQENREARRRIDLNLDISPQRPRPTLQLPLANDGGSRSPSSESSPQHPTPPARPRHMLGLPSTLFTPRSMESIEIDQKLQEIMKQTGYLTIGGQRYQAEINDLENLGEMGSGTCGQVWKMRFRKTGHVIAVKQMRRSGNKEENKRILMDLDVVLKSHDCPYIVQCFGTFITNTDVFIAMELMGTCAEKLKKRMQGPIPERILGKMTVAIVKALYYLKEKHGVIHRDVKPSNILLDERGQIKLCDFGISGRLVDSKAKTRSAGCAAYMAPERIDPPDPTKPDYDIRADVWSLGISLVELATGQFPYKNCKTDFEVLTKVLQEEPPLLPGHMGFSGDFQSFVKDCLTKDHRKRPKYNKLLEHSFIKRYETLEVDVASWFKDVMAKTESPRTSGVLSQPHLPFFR
Experimental: as §1, §2, §3, §4, §5

T2 sequence (P45983 whole entry): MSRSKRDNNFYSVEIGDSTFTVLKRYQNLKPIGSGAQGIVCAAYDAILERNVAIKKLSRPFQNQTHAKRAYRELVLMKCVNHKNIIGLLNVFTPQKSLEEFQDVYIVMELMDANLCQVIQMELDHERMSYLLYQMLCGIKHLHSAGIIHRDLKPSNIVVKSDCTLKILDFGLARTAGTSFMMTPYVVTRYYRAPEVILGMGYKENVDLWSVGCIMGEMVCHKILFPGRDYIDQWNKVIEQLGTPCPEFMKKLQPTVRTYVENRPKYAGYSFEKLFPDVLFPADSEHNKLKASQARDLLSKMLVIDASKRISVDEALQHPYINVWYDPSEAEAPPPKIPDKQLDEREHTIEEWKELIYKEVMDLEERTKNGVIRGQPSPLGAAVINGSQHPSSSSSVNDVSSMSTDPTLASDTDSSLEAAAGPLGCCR
T1 sequence (P15056 whole entry): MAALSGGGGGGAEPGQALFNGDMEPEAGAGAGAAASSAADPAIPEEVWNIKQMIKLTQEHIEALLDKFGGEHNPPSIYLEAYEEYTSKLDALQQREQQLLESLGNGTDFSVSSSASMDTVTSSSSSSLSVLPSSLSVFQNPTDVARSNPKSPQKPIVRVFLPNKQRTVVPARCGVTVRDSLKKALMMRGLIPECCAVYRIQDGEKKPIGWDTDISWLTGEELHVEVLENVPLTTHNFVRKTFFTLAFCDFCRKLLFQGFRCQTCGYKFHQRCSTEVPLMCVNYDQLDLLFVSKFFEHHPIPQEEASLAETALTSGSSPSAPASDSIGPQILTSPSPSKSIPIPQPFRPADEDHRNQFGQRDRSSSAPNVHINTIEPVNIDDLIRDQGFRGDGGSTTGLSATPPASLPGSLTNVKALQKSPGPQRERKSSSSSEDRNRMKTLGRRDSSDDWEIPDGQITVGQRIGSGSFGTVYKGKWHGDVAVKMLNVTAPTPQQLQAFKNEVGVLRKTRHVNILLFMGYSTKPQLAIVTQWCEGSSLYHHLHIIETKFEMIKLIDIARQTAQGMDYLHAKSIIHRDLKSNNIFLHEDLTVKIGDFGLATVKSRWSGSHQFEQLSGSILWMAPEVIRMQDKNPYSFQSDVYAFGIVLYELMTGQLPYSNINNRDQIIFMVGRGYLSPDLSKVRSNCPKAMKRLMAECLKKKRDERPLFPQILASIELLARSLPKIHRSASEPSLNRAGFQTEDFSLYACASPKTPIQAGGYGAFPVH

Structure (SMILES) | Selectivity Braf (BRaf) | Selectivity JNK1 (JNK1) | IC50 (MKK4) [nM] | Selectivity MKK7 (MKK7)
CCCS(=O)(=O)Nc1c(F)ccc(C(=O)c2n[nH]c3ncc(-c4cnc(C)nc4C)cc23)c1F [Example 30, N-[3-[5-(2,4-dimethylpyrimidin-5-yl)-1H-pyrazolo[3,4-b]pyridine-3-carbonyl]-2,6-difluoro-phenyl]propane-1-sulfonamide] | +++ (IC50(off-target)/IC50(MKK4) > 100) | +++ (IC50(off-target)/IC50(MKK4) > 100) | 100 to 1000 | +++ (IC50(off-target)/IC50(MKK4) > 100)
CCCS(=O)(=O)Nc1c(F)ccc(C(=O)c2n[nH]c3ncc(-c4cnc(C5CC5)nc4C)cc23)c1F [Example 31, N-(3-(5-(2-cyclopropyl-4-methylpyrimidin-5-yl)-1H-pyrazolo[3,4-b]pyridine-3 carbonyl)-2,6-difluorophenyl)propane-1-sulfonamide] | +++ (IC50(off-target)/IC50(MKK4) > 100) | +++ (IC50(off-target)/IC50(MKK4) > 100) | 100 to 1000 | +++ (IC50(off-target)/IC50(MKK4) > 100)
CCCS(=O)(=O)Nc1c(F)ccc(C(=O)c2n[nH]c3ncc(-c4cnc(C5CC5)nc4SC)cc23)c1F [Example 32, N-(3-(5-(2-cyclopropyl-4-(methylthio)pyrimidin-5-yl)-1H-pyrazolo[3,4-b]pyridine-3 carbonyl)-2,6-difluorophenyl)propane-1-sulfonamide] | +++ (IC50(off-target)/IC50(MKK4) > 100) | +++ (IC50(off-target)/IC50(MKK4) > 100) | 100 to 1000 | +++ (IC50(off-target)/IC50(MKK4) > 100)
CCCS(=O)(=O)Nc1c(F)ccc(C(=O)c2n[nH]c3ncc(-c4cnc(SC)nc4C)cc23)c1F [Example 33, N-[2,6-difluoro-3-[5-(4-methyl-2-methylsulfanyl-pyrimidin-5-yl)-1H-pyrazolo[3,4-b]pyridine-3-carbonyl]phenyl]propane-1-sulfonamide] | +++ (IC50(off-target)/IC50(MKK4) > 100) | +++ (IC50(off-target)/IC50(MKK4) > 100) | < 100 | +++ (IC50(off-target)/IC50(MKK4) > 100)
CCCS(=O)(=O)Nc1c(F)ccc(C(=O)c2n[nH]c3ncc(-c4cnc(OC)nc4OC)cc23)c1F [Example 34, N-[3-[5-(2,4-dimethoxypyrimidin-5-yl)-1H-pyrazolo[3,4-b]pyridine-3-carbonyl]-2,6-difluoro-phenyl]propane-1-sulfonamide] | +++ (IC50(off-target)/IC50(MKK4) > 100) | +++ (IC50(off-target)/IC50(MKK4) > 100) | < 100 | +++ (IC50(off-target)/IC50(MKK4) > 100)
CCCS(=O)(=O)Nc1c(F)cc(F)c(C(=O)c2n[nH]c3ncc(-c4cnc(C5CC5)nc4)cc23)c1F [Example 35, N-(3-(5-(2-cyclopropylpyrimidin-5-yl)-1H-pyrazolo[3,4-b]pyridine-3-carbonyl)-2,4,6-trifluorophenyl)propane-1-sulfonamide] | +++ (IC50(off-target)/IC50(MKK4) > 100) | +++ (IC50(off-target)/IC50(MKK4) > 100) | < 100 | +++ (IC50(off-target)/IC50(MKK4) > 100)
CCCS(=O)(=O)Nc1c(F)ccc(C(=O)c2n[nH]c3ncc(-c4ccncc4CC)cc23)c1F [Example 36, N-[3-[5-(3-ethyl-4-pyridyl)-1H-pyrazolo[3,4-b]pyridine-3-carbonyl]-2,6-difluoro-phenyl]propane-1-sulfonamide] | +++ (IC50(off-target)/IC50(MKK4) > 100) | +++ (IC50(off-target)/IC50(MKK4) > 100) | < 100 | +++ (IC50(off-target)/IC50(MKK4) > 100)
CCCS(=O)(=O)Nc1c(F)ccc(C(=O)c2n[nH]c3ncc(-c4ccncc4C#N)cc23)c1F [Example 37, N-[3-[5-(3-cyano-4-pyridyl)-1H-pyrazolo[3,4-b]pyridine-3-carbonyl]-2,6-difluoro-phenyl]propane-1-sulfonamide] | +++ (IC50(off-target)/IC50(MKK4) > 100) | +++ (IC50(off-target)/IC50(MKK4) > 100) | < 100 | +++ (IC50(off-target)/IC50(MKK4) > 100)
